Reference: patent US20180284095A1, “BIOMARKERS ASSOCIATED WITH LSD1 INHIBITORS AND USES THEREOF” (Oryzon Genomics, S.A., priority 2015, published 2018)

How the values were obtained:
[1] = target: T1, Human recombinant LSD1 protein (Homo sapiens, UniProt O60341); test: LSD1 in vitro biochemical assay (Amplex Red, di-methylated H3-K4 peptide)
T1 construct: amino acids 158-end with N-terminal GST tag; purchased BPS Bioscience Inc 50100
Description: The inhibitory activity of a compound of interest against LSD1 can be tested using the method described below: Human recombinant LSD1 protein from BPS Bioscience Inc (catalog reference number 50100: human recombinant LSD1, GenBank accession no. NM_015013, amino acids 158-end with N-terminal GST tag, MW: 103 kDa) was used. In order to monitor LSD1 enzymatic activity and/or its inhibition rate by a test compound, di-methylated H3-K4 peptide (Anaspec) was chosen as a substrate. The demethylase activity was estimated, under aerobic conditions, by measuring the release of H2O2 produced during the catalytic process, using the Amplex® Red hydrogen peroxide/peroxidase assay kit (Invitrogen).
Briefly, a fixed amount of LSD1 was incubated on ice for 15 minutes, in the absence and/or in the presence of at least eight 3-fold serial dilutions of the respective inhibitor (e.g., from 0 to 75 μM, depending on the inhibitor strength). Tranylcypromine (Biomol International) was used as a control for inhibition. Within the experiment, each concentration of inhibitor was tested in duplicate. After leaving the enzyme interacting with the inhibitor, KM of di-methylated H3-K4 peptide was added to each reaction and the experiment was left for 30 minutes at 37° C. in the dark. The enzymatic reactions were set up in a 50 mM sodium phosphate, pH 7.4 buffer. At the end of the incubation, Amplex® Red reagent and horseradish peroxidase (HPR) solution were added to the reaction according to the recommendations provided by the supplier (Invitrogen), and left to incubate for 5 extra minutes at room temperature in the dark. A 1 μM H2O2 solution was used as a control of the kit efficiency. The conversion of the Amplex® Red reagent to resorufin due to the presence of H2O2 in the assay, was monitored by fluorescence (excitation at 540 nm, emission at 590 nm) using a microplate reader (Infinite 200, Tecan). Arbitrary units were used to measure level of H2O2 produced in the absence and/or in the presence of inhibitor. The maximum demethylase activity of LSD1 was obtained in the absence of inhibitor and corrected for background fluorescence in the absence of LSD1. The IC50 value of each inhibitor was calculated with GraphPad Prism Software.

TUBB3 = test: Microarray gene expression, brain of Hsd:ICR (CD1) mice, MTD study (Example 6), housekeeping gene; format: in vivo, mouse; details: brain day 5, male CD1 mice pool
Protocol: (§1) Total RNA was extracted from samples using the RNeasy extraction kit (Qiagen). The quality and concentration of the RNA was analyzed using the Agilent 2100 bioanalyzer and NanoDrop™ ND-1000 (Thermo Scientific). Samples with RNA integrity number (RIN)<6.0 were discarded. Total RNA (0.5 μg) amplification and labelling with Cy3 or Cy5 was carried out using the Eberwein mRNA amplification procedure (Van Gelder et al, Proc Natl Acad Sci USA 1990, 87:1663-1667) employing the MessageAmp™ aRNA amplification kit from Ambion (Applied Biosystems) following the manufacturer's instructions with minor modifications. As hybridization controls, plant mRNAs were transcribed from a plasmid containing the Zea mays Xet (xyloglucan endo-transglycosylase) cDNA and from a plasmid containing the Zea mays Zmmyb42 cDNA, independently prepared Cy3 and Cy5 labelled aRNA from these two RNAs using the Eberwein mRNA amplification procedure (as disclosed in Cerdà et al, Gen Comp Endocrinol 2008, 156:470-481).
(§2) The Cy3- and Cy5-labelled cRNAs and spikes were combined and hybridized to the microarray described in Example 2.6 for 17 h at 60° C. using Agilent's gaskets G2534-60002, G2534A hybridization chambers and DNA Hybridization Oven G2545A, according to the manufacturer's instructions. More specifically, equal amounts of Cy3 and Cy5 labeled Xet aRNA as well as equal amounts of Cy3 and Cy5 labeled Zmmyb42 aRNA were spiked into each mixture hybridized to the array. Arrays were washed and raw data were obtained using Agilent's DNA Microarray Scanner G2505B and Feature Extraction software (v10.1). The raw fluorescence intensity data were processed using applicant's proprietary software, and consists in the following operations:
(§3) Data normalization was carried out by an improved version of the nonlinear Q-splines normalization method (Workman et al., Genome Biol 2002, 3(9):research0048.1-0048.16). Normalization results were presented graphically as MA plots, as first described by Dudoit et al (Dudoit et al, Statistica Sinica, 2002, 12:111-139). Each point corresponds to a probe of the DNA array. M values (vertical axis) are the log-differential expression ratios. A values (horizontal axis) are the log-intensities of the spots. M and A are calculated from the Cy5 and Cy3 intensity values as of each spot. The DNA Array data is normalized using an improved version of non-linear Q-Splines normalization described by Workman et al., Genome Biol 2002, 3(9):research0048.1-0048.16. This process is useful to correct the deviation of the M values from the statistical assumption that most of the spots have M=0 in MA plots. […]. The data used to calculate the normalization fitting curve is the totality of the raw measurement dataset, excluding the signals for the probes for the spiked-in plant RNA controls and negative controls. In order to be able to normalize properly the data among all the experiments, the probe-set must include an important group of genes that should have no change (M=0) in the experiment. The normalization function is then applied to all the data, including controls.
(§4) Normalized and log-transformed data were used to calculate log 2 (sample/control) and Fold Change (FC) values. No background subtraction was applied to the signal intensity values during data processing, permitting robust selection of differentially expressed genes with low expression levels at the cost of potential sub-estimation of change when intensity levels are close to the array background level.
(§5) Male Hsd:ICR (CD1®) mice were maintained in air- and temperature-controlled cages with regular supply of water and food. A maximum of 3 mice were raised per cage. Three mice were assigned to each group. Before the first administration, each mouse was labeled and weighed. Test compounds were administered orally using 1 ml syringes using animal feeding needles proper for mice at 10 ml/kg as follows. […]

TUBB2C = test: as above; format: in vivo, mouse; details: brain day 5, male CD1 mice pool
Protocol: as §1, §2, §3, §4, §5

S100A9 = test: Microarray gene expression, brain of Hsd:ICR (CD1) mice, MTD study (Example 6); format: in vivo, mouse; details: brain day 5, male CD1 mice pool
Protocol: as §1, §2, §3, §4, §5

[2] = 3 mg/kg oral x5 days vs vehicle
[3] = 10 mg/kg oral x5 days vs vehicle
[4] = 30 mg/kg oral x5 days vs vehicle
[5] = 100 mg/kg oral x5 days vs vehicle

Row | Molecule | IC50 [1] [µM] | Hybridization signal sample_Cy5 TUBB3 (TUBB3; 3 mg/kg oral x5 days) | log2 (sample/control) TUBB3 (TUBB3; [2]) | Hybridization signal sample_Cy5 TUBB3 (TUBB3; 10 mg/kg oral x5 days) | log2 (sample/control) TUBB3 (TUBB3; [3]) | Hybridization signal sample_Cy5 TUBB3 (TUBB3; 30 mg/kg oral x5 days) | log2 (sample/control) TUBB3 (TUBB3; [4]) | Hybridization signal sample_Cy5 TUBB3 (TUBB3; 100 mg/kg oral x5 days) | log2 (sample/control) TUBB3 (TUBB3; [5]) | Hybridization signal sample_Cy5 TUBB2C (TUBB2C; 3 mg/kg oral x5 days) | log2 (sample/control) TUBB2C (TUBB2C; [2]) | Hybridization signal sample_Cy5 TUBB2C (TUBB2C; 10 mg/kg oral x5 days) | log2 (sample/control) TUBB2C (TUBB2C; [3]) | Hybridization signal sample_Cy5 TUBB2C (TUBB2C; 30 mg/kg oral x5 days) | log2 (sample/control) TUBB2C (TUBB2C; [4]) | Hybridization signal sample_Cy5 TUBB2C (TUBB2C; 100 mg/kg oral x5 days) | log2 (sample/control) TUBB2C (TUBB2C; [5]) | Hybridization signal sample_Cy5 S100A9 (S100A9; 3 mg/kg oral x5 days) | log2 (sample/control) S100A9 (S100A9; [2]) | Hybridization signal sample_Cy5 S100A9 (S100A9; 10 mg/kg oral x5 days) | also measured
1 | NC(=O)CN[C@H]1C[C@@H]1c1ccc(OCc2ccccc2)cc1 (racemic) [Compound 3, 2-(((trans)-2-(4-(benzyloxy)phenyl)cyclopropyl)amino)acetamide] | 0.16 |  |  |  |  |  |  |  |  |  |  |  |  |  |  |  |  |  |  |  | 
2 | N[C@H]1CCN(CCN[C@H]2C[C@@H]2c2ccc(-c3cccc(C(F)(F)F)c3)cc2)C1 (racemic) [Compound 5, (S)-1-(2-(((trans)-2-(3′-(trifluoromethyl)-[1,1′-biphenyl]-4-yl)cyclopropyl)amino)ethyl)pyrrolidin-3-amine] | 0.06 |  |  |  |  |  |  |  |  |  |  |  |  |  |  |  |  |  |  |  | 
3 | (+) 5-((((trans)-2-(4-(benzyloxy)phenyl)cyclopropyl)amino)methyl)-1,3,4-oxadiazol-2-amine [Compound 2] | 2.3 | 3650.69 | 0.09458 | 3706.64 | −0.1239 | 4409.6 | −0.002033 | 2253.74 | −0.4338 | 5746.61 | 0.1908 | 5742.06 | 0.1179 | 6326.04 | 0.1798 | 3724.28 | −0.3983 | 291.855 | −0.2512 | 117.175 | log2 (sample/control) S100A9 (S100A9; [3]): −1.515; Hybridization signal sample_Cy5 S100A9 (S100A9; 30 mg/kg oral x5 days): 149.542; log2 (sample/control) S100A9 (S100A9; [4]): −1.285; Hybridization signal sample_Cy5 S100A9 (S100A9; 100 mg/kg oral x5 days): 45.3442; log2 (sample/control) S100A9 (S100A9; [5]): −2.876
4 | (−) 5-((((trans)-2-(4-(benzyloxy)phenyl)cyclopropyl)amino)methyl)-1,3,4-oxadiazol-2-amine [Compound 1] | 0.09 | 3553.16 | −0.1852 | 2424.61 | −0.5964 | 2911.46 | −0.1102 | 3667.46 | −0.02579 | 5008.03 | −0.03216 | 3965.09 | −0.309 | 5060.07 | 0.03544 | 5579.26 | 0.0424 | 97.9225 | −1.935 | 46.2723 | log2 (sample/control) S100A9 (S100A9; [3]): −2.962; Hybridization signal sample_Cy5 S100A9 (S100A9; 30 mg/kg oral x5 days): 45.4319; log2 (sample/control) S100A9 (S100A9; [4]): −2.9408; Hybridization signal sample_Cy5 S100A9 (S100A9; 100 mg/kg oral x5 days): 56.7063; log2 (sample/control) S100A9 (S100A9; [5]): −2.792
